Assay results from ChEMBL document CHEMBL1132978, “Artificial neural network applied to prediction of fluorquinolone antibacterial activity by topological methods” (2000).
Converted amounts (≈) assume the structure as drawn.

System: Escherichia coli
Test: Minimum inhibitory concentration against Escherichia coli
Assay type: functional

SMILES	MIC [µg/mL]
CCNCC1CCN(c2cc3c(cc2F)c(=O)c(C(=O)O)cn3C2CC2)C1 (stereo not drawn)	0.1 (≈ 0.268 µM)
CNCC1CCN(c2cc3c(cc2F)c(=O)c(C(=O)O)cn3C2CC2)C1 (stereo not drawn)	0.2 (≈ 0.556 µM)
CC(N)C1CCN(c2c(F)cc3c(=O)c(C(=O)O)cn(C4CC4)c3c2F)C1 (stereo not drawn)	0.013 (≈ 0.0344 µM)
CC1(CN)CCN(c2c(F)c(N)c3c(=O)c(C(=O)O)cn(C4CC4)c3c2F)C1 (stereo not drawn)	0.2 (≈ 0.51 µM)
CNCC1CCN(c2cc3c(cc2F)c(=O)c(C(=O)O)cn3-c2ccc(F)cc2F)C1 (stereo not drawn)	0.2 (≈ 0.464 µM)
CCn1cc(C(=O)O)c(=O)c2cc(F)c(N3CCC(CN)C3)c(F)c21 (stereo not drawn)	0.1 (≈ 0.285 µM)
CC1CN(c2cc3c(cc2F)c(=O)c(C(=O)O)cn3C2CC2)CCN1 (stereo not drawn)	0.05 (≈ 0.145 µM)
O=C(O)c1cn(C2CCC2)c2cc(N3CCNCC3)c(F)cc2c1=O	0.4 (≈ 1.16 µM)
